Reference: patent US7687478B2, “Disialoundecasaccharide chain asparagine/fatty acid amide and medical drug containing the same” (priority 2003, dated 2010)

test system: influenza virus A/New Caledonia/20/99 (H1N1) (hemagglutinin); assay: Influenza virus (hemagglutinin) inhibiting activity with fowl blood cells; type: biochemical; conditions: A/New Caledonia/20/99 (H1N1) HA split fractions; 0.5% fowl hematid; 4° C., 60 minutes

| Substance | amount of derivative at which influenza virus (hemagglutinin) inhibiting activity was exhibited |
| --- | --- |
| Asparagine-linked Disialoundecaoligosaccharide-behenic Acid Amide [derivative 6] | 37.5 µmol |
| Asparagine-linked Disialoundecaoligosaccharide-decanoic Acid Amide [derivative 3] | 190.0 µmol |
| Asparagine-linked Disialoundecaoligosaccharide-myristic Acid Amide [derivative 4] | 95.0 µmol |
| Asparagine-linked Disialoundecaoligosaccharide-stearic Acid Amide [derivative 5] | 47.5 µmol |
